Measured values published in patent US11638713B2, “Patentiflorin A analogs as antiviral agents” (priority 2019, dated 2023).

Key:
[1] = test system: HIV; test: microbe, parasite or virus in culture; assay type: cell-based; details: for EC50: Human immunodeficiency virus 1, A549
[2] = in vitro; details: human
[3] = test system: H5N1 virus; test: microbe, parasite or virus in culture; assay type: cell-based, H5N1 influenza virus; details: Influenza A virus, read-out: % Inhibition against H5N1 virus; for inhibition at 1 µg/mL: H5N1, A549, 1000 ng/mL; for inhibition at 5 µg/mL: H5N1, A549, 5000 ng/mL; for inhibition at 0.05 µg/mL: H5N1, A549, 50 ng/mL; for inhibition at 0.25 µg/mL: H5N1, A549, 250 ng/mL

SMILES | EC50 [1] | CC50 ([2]; CC50 (nM)) | also measured
COc1cc2c(OCC(=O)OC(C)(C)C)c3c(c(-c4ccc5c(c4)OCO5)c2cc1OC)C(=O)OC3 [Compound 12a] | 518 nM | > 10100 nM | 
COc1cc2c(OCC(=O)O)c3c(c(-c4ccc5c(c4)OCO5)c2cc1OC)C(=O)OC3 [Compound 13] | 23100 nM | > 114000 nM | 
COc1cc2c(OCC(N)=O)c3c(c(-c4ccc5c(c4)OCO5)c2cc1OC)C(=O)OC3 [Compound 14a] | 103 nM | 548 nM | 
CNC(=O)COc1c2c(c(-c3ccc4c(c3)OCO4)c3cc(OC)c(OC)cc13)C(=O)OC2 [Compound 14b] | 278 nM | 2120 nM | 
COc1cc2c(OCCO)c3c(c(-c4ccc5c(c4)OCO5)c2cc1OC)C(=O)OC3 [Compound 15a] | 33.6 nM | 918 nM | 
COc1cc2c(OCC(C)(C)O)c3c(c(-c4ccc5c(c4)OCO5)c2cc1OC)C(=O)OC3 [Compound 15b] | 15.5 nM | 1330 nM | 
COc1cc2c(OC(C)=O)c3c(c(-c4ccc5c(c4)OCO5)c2cc1OC)C(=O)OC3 [Compound 16] |  | 3400 nM | 
COc1cc2c(OC)c3c(c(-c4ccc5c(c4)OCO5)c2cc1OC)C(=O)OC3 [Compound 17b] | 2.6 nM | 2140 nM | anti-HIV activity in terms of SI values [1]: much more improved anti-HIV activity
C#CCOc1c2c(c(-c3ccc4c(c3)OCO4)c3cc(OC)c(OC)cc13)C(=O)OC2 [Compound 17c] | 4.8 nM | 890 nM | anti-HIV activity in terms of SI values [1]: much more improved anti-HIV activity
COc1cc2c(Oc3ncccn3)c3c(c(-c4ccc5c(c4)OCO5)c2cc1OC)C(=O)OC3 [Compound 17d] | 1590 nM | 61100 nM | 
COc1cc2c(OC(=O)C3CCCC3)c3c(c(-c4ccc5c(c4)OCO5)c2cc1OC)C(=O)OC3 [Compound 17f] | 772 nM | 7070 nM | 
COc1cc2c(OC(=O)c3ccc(F)cc3)c3c(c(-c4ccc5c(c4)OCO5)c2cc1OC)C(=O)OC3 [Compound 17g] | 79.9 nM | 1320 nM | 
COc1ccc(C(=O)Oc2c3c(c(-c4ccc5c(c4)OCO5)c4cc(OC)c(OC)cc24)C(=O)OC3)cc1 [Compound 17h] | 96.5 nM | 1460 nM | 
COc1cc2c(OS(=O)(=O)C(F)(F)F)c3c(c(-c4ccc5c(c4)OCO5)c2cc1OC)C(=O)OC3 [Compound 18] | 488 nM | 1360 nM | 
COc1cc2c(C)c3c(c(-c4ccc5c(c4)OCO5)c2cc1OC)C(=O)OC3 [Compound 19b] | 6.1 nM | 77.3 nM | 
COc1cc2c(-c3ccncc3)c3c(c(-c4ccc5c(c4)OCO5)c2cc1OC)C(=O)OC3 [Compound 19c] | 88.9 nM | 1670 nM | 
COc1cc2cc3c(c(-c4ccc5c(c4)OCO5)c2cc1OC)C(=O)OC3 [Compound 19d] | 22.9 nM | 5430 nM | anti-HIV activity in terms of SI values [1]: much more improved anti-HIV activity
COc1cc2c(Nc3ccc(C(F)(F)F)cc3)c3c(c(-c4ccc5c(c4)OCO5)c2cc1OC)C(=O)OC3 [Compound 19e] | 212 nM | > 9550 nM | 
COc1cc2c(Nc3ccccc3)c3c(c(-c4ccc5c(c4)OCO5)c2cc1OC)C(=O)OC3 [Compound 19f] | 976 nM | 4510 nM | 
CCc1c2c(c(-c3ccc4c(c3)OCO4)c3cc(OC)c(OC)cc13)C(=O)OC2 [Compound 19g] | 19.3 nM | 196 nM | 
COc1cc2c(-c3cccs3)c3c(c(-c4ccc5c(c4)OCO5)c2cc1OC)C(=O)OC3 [Compound 19h] | 270 nM | 2390 nM | 
COc1cc2c(-c3cccnc3)c3c(c(-c4ccc5c(c4)OCO5)c2cc1OC)C(=O)OC3 [Compound 19i] | 877 nM | 38400 nM | 
COc1cc2c(-c3ccco3)c3c(c(-c4ccc5c(c4)OCO5)c2cc1OC)C(=O)OC3 [Compound 19k] | 60.1 nM | 1060 nM | 
COc1cc2c(C3=CCN(C(=O)OC(C)(C)C)CC3)c3c(c(-c4ccc5c(c4)OCO5)c2cc1OC)C(=O)OC3 [Compound 19l] | 75.9 nM | 4190 nM | 

SMILES | EC50 [1] | CC50 ([2]; CC50 (nM)) | also measured
COc1cc2c(-c3ccc4c(c3)OCO4)c3c(c(N4CCOCC4)c2cc1OC)COC3=O [Compound 19m] | 88.6 nM | 1500 nM | 
COc1cc2c(C(C)=O)c3c(c(-c4ccc5c(c4)OCO5)c2cc1OC)C(=O)OC3 [Compound 19n] | 39.5 nM | 1060 nM | 
COc1cc2c(C#C[Si](C)(C)C)c3c(c(-c4ccc5c(c4)OCO5)c2cc1OC)C(=O)OC3 [Compound 19o] | 35.7 nM | 1220 nM | 
COc1cc2c(-c3ccc4c(c3)OCO4)c3c(c(C(C)O)c2cc1OC)COC3=O (stereo not shown) [Compound 20] | 21.7 nM | 389 nM | 
COc1cc2c(N)c3c(c(-c4ccc5c(c4)OCO5)c2cc1OC)C(=O)OC3 [Compound 22] | 1.61 nM | 358 nM | anti-HIV activity in terms of SI values [1]: much more improved anti-HIV activity
COc1cc2c(NC(C)=O)c3c(c(-c4ccc5c(c4)OCO5)c2cc1OC)C(=O)OC3 [Compound 24] | 88.9 nM | > 11900 nM | 
COc1cc2c(OC3O[C@H](C)[C@@H](OC(C)=O)[C@H](OC(C)=O)[C@H]3OC(C)=O)c3c(c(-c4ccc5c(c4)OCO5)c2cc1OC)C(=O)OC3 (stereo partly shown) [Compound 25b, Peracetylated Patentiflorin A] |  | 259 nM | 
COc1cc2c(OC3OC[C@@H](O)[C@H](O)[C@H]3O)c3c(c(-c4ccc5c(c4)OCO5)c2cc1OC)C(=O)OC3 (stereo partly drawn) [Compound 26a, 7β-D-xylosyloxydiphyllin] |  | 6220 nM | inhibition at 1 µg/mL [3]: 93.6%; inhibition at 5 µg/mL [3]: 97.8%
COc1cc2c(OC3OC[C@H](O)[C@H](O)[C@H]3O)c3c(c(-c4ccc5c(c4)OCO5)c2cc1OC)C(=O)OC3 (stereo partly drawn) [Compound 26c, 7-O-α-L-arabinosyldiphyllin] |  | > 9760 nM | 
COc1cc2c(OC3O[C@@H](C)[C@@H](O)[C@@H](O)[C@@H]3O)c3c(c(-c4ccc5c(c4)OCO5)c2cc1OC)C(=O)OC3 (stereo partly drawn) [Compound 26d, 7-O-β-L-fucopyranosyldiphyllin] | 42.3 nM | > 9500 nM | anti-HIV activity in terms of SI values [1]: much more improved anti-HIV activity
COc1cc2c(OC3OC[C@@H](O)[C@H](OC(C)=O)[C@H]3O)c3c(c(-c4ccc5c(c4)OCO5)c2cc1OC)C(=O)OC3 (stereo partly drawn) [Compound 27ab, 3″-Acetyl-7-O-β-D-xylosyldiphyllin] |  | 2760 nM | inhibition at 1 µg/mL [3]: 96.9%; inhibition at 5 µg/mL [3]: 97.8%
COc1cc2c(OC3OC[C@@H](O)[C@H](O)[C@H]3OC(C)=O)c3c(c(-c4ccc5c(c4)OCO5)c2cc1OC)C(=O)OC3 (stereo partly shown) [Compound 27ac] |  | 2940 nM | 
COc1cc2c(OC3OC[C@@H](OC(C)=O)[C@H](OC(C)=O)[C@H]3O)c3c(c(-c4ccc5c(c4)OCO5)c2cc1OC)C(=O)OC3 (stereo partly drawn) [Compound 27ad, 3″, 4″-Diacetyl-7-O-β-D-xylosyldiphyllin] |  | 783 nM | 
COc1cc2c(OC3OC[C@@H](OC(C)=O)[C@H](O)[C@H]3OC(C)=O)c3c(c(-c4ccc5c(c4)OCO5)c2cc1OC)C(=O)OC3 (stereo partly drawn) [Compound 27ae, 2″,4″-Diacetyl-7-O-β-D-xylosyldiphyllin] |  | 2590 nM | 
COc1cc2c(OC3OC[C@@H](O)[C@H](OC(C)=O)[C@H]3OC(C)=O)c3c(c(-c4ccc5c(c4)OCO5)c2cc1OC)C(=O)OC3 (stereo partly drawn) [Compound 27af, 2″,3″-Diacetyl-7-O-β-D-xylosyldiphyllin] |  | 2250 nM | 
COc1cc2c(OC3O[C@H](C)[C@@H](OC(C)=O)[C@H](O)[C@H]3O)c3c(c(-c4ccc5c(c4)OCO5)c2cc1OC)C(=O)OC3 (stereo partly drawn) [Compound 27ba, 4″-Acetyl-7-O-β-D-patentiflorin A] | 8.47 nM | 1160 nM | 
COc1cc2c(OC3O[C@H](C)[C@@H](O)[C@H](OC(C)=O)[C@H]3O)c3c(c(-c4ccc5c(c4)OCO5)c2cc1OC)C(=O)OC3 (stereo partly drawn) [Compound 27bb, 3″-Acetyl-7-O-β-D-patentiflorin A] | 1.01 nM | 589 nM | anti-HIV activity in terms of SI values [1]: much more improved anti-HIV activity
COc1cc2c(OC3O[C@H](C)[C@@H](OC(C)=O)[C@H](OC(C)=O)[C@H]3O)c3c(c(-c4ccc5c(c4)OCO5)c2cc1OC)C(=O)OC3 (stereo partly drawn) [Compound 27bd, 3″, 4″-Diacetyl-7-O-β-D-patentiflorin A] | 6.39 nM | 421 nM | 
COc1cc2c(OC3O[C@H](C)[C@@H](O)[C@H](OC(=O)N(C)C)[C@H]3O)c3c(c(-c4ccc5c(c4)OCO5)c2cc1OC)C(=O)OC3 (stereo partly drawn) [Compound 31f, 3″-O-dimethylcarbamyl-7-O-β-D-patentiflorin A] |  | 3.74 nM | 
COc1cc2c(OC3O[C@H](C)[C@@H](O)[C@H](OC(=O)c4ccc(Cl)cc4)[C@H]3O)c3c(c(-c4ccc5c(c4)OCO5)c2cc1OC)C(=O)OC3 (stereo partly drawn) [Compound 31h, 3″-O-p-chlorobenzoyl-7-O-β-D-patentiflorin A] |  | 336 nM | inhibition at 0.05 µg/mL [3]: 94.6%; inhibition at 0.25 µg/mL [3]: 97.6%
COc1cc2c(OC3O[C@H](C)[C@@H](O)[C@H](OC(=O)c4cnccn4)[C@H]3O)c3c(c(-c4ccc5c(c4)OCO5)c2cc1OC)C(=O)OC3 (stereo partly drawn) [Compound 31i, 3″-O-pyrazinecarbonyl-7-O-β-D-patentiflorin A] |  |  | anti-HIV activity in terms of SI values [1]: much more improved anti-HIV activity
COc1cc2c(OC3O[C@H](C)[C@@H](O)[C@H](OC(=O)C(Cl)(Cl)Cl)[C@H]3O)c3c(c(-c4ccc5c(c4)OCO5)c2cc1OC)C(=O)OC3 (stereo partly drawn) [Compound 31k, 3″-O-trichloroacetyl-7-O-β-D-patentiflorin A] |  | 508 nM | inhibition at 0.05 µg/mL [3]: 86%; inhibition at 0.25 µg/mL [3]: 95.7%
CC(=O)O[C@H]1C(=O)[C@@]2(C)[C@H]([C@H](OC(=O)c3ccccc3)[C@]3(O)C[C@H](OC(=O)[C@H](O)[C@@H](NC(=O)c4ccccc4)c4ccccc4)C(C)=C1C3(C)C)[C@]1(OC(C)=O)CO[C@@H]1C[C@@H]2O [taxol, reference compound] |  |  | CC50 ([2]; CC50 against the host cell line A549): 2.99 nM
